Assay results from PubChem BioAssay AID248 (DTP/NCI, 2004).
“And” between values parts separate entries of the source, which are not always exact repeats. Identical values can stand only once. Toxic doses and inconclusive results are not listed. No stated cut-off is given here; in the data, active means T/C of 150% or more; inactive means T/C below 125%.

Test system: L1210 leukemia ip in BDF1 mice, survival T/C
Assay: NCI In Vivo Anticancer Drug Screen. Data for tumor model L1210 Leukemia (intraperitoneal) in B6D2F1 (BDF1) mice
Settings: endpoint: mean survival time, higher = longer survival
Summary of the method: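 Antitumor effect is assessed in tumor-bearing animals. Survival in the compound arm is compared with a vehicle-dosed control arm and expressed as their quotient.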

[1] = dose: 100.0 mg/kg/injection, schedule: Q01DX005 (ip), vehicle: saline
[2] = dose: 100.0 mg/kg/injection, schedule: Q01DX009 (ip), vehicle: saline
[3] = dose: 25.0 mg/kg/injection, schedule: Q04DX003 (ip), vehicle: saline
[4] = dose: 100.0 mg/kg/injection, schedule: Q01DX001 (ip), vehicle: saline
[5] = dose: 100.0 mg/kg/injection, schedule: Q04DX003 (ip), vehicle: saline

Measured: T/C

C#CC(C)(C)C(C(=O)OCC)C(=O)OCC
inactive: dose: 75.0 mg/kg/injection, schedule: Q01DX009 (ip), vehicle: Klucel (hydroxypropylcellulose) (HPC) 102 % of control | dose: 150.0 mg/kg/injection, schedule: Q01DX009 (ip), vehicle: Klucel (hydroxypropylcellulose) (HPC) 100 % of control | dose: 300.0 mg/kg/injection, schedule: Q01DX009 (ip), vehicle: Klucel (hydroxypropylcellulose) (HPC) 97 % of control

CC(C)(C)/C=N/Nc1ccc([N+](=O)[O-])cc1[N+](=O)[O-]
inactive: dose: 100.0 mg/kg/injection, schedule: Q01DX009 (ip), vehicle: Klucel (hydroxypropylcellulose) (HPC) 108 % of control | dose: 200.0 mg/kg/injection, schedule: Q01DX009 (ip), vehicle: Klucel (hydroxypropylcellulose) (HPC) 106 % of control | dose: 400.0 mg/kg/injection, schedule: Q01DX009 (ip), vehicle: Klucel (hydroxypropylcellulose) (HPC) 102 % of control

N#CCc1ccc2[nH]c3c(c2c1)CCCC3
inactive: dose: 100.0 mg/kg/injection, schedule: Q04DX002 (ip), vehicle: Klucel (hydroxypropylcellulose) (HPC) 106 % of control | dose: 200.0 mg/kg/injection, schedule: Q04DX002 (ip), vehicle: Klucel (hydroxypropylcellulose) (HPC) 92 % of control | dose: 400.0 mg/kg/injection, schedule: Q04DX002 (ip), vehicle: Klucel (hydroxypropylcellulose) (HPC) 92 % of control

O=c1ccn2c(n1)OC1C(O)C(CO)OC12 (centres undefined)
inactive: [1] 103 % of control | [2] 97 % of control | dose: 200.0 mg/kg/injection, schedule: Q01DX005 (ip), vehicle: saline 111 % of control | dose: 200.0 mg/kg/injection, schedule: Q01DX009 (ip), vehicle: saline 109 % of control | dose: 400.0 mg/kg/injection, schedule: Q01DX009 (ip), vehicle: saline 101 % of control

CCNC(=O)Oc1c(Cl)cc(S(=O)(=O)F)cc1Cl
inactive: dose: 12.5 mg/kg/injection, schedule: Q01DX009 (ip), vehicle: saline with Tween-80 90 % of control | dose: 12.5 mg/kg/injection, schedule: Q04DX002 (ip), vehicle: saline with Tween-80 93 % of control | dose: 25.0 mg/kg/injection, schedule: Q01DX009 (ip), vehicle: saline with Tween-80 103 % of control | dose: 25.0 mg/kg/injection, schedule: Q04DX002 (ip), vehicle: saline with Tween-80 101 % of control | dose: 50.0 mg/kg/injection, schedule: Q04DX002 (ip), vehicle: saline with Tween-80 96 % of control

Nc1ncnc(N)c1NC(=O)c1ccc(-c2ccccc2)cc1
inactive: dose: 100.0 mg/kg/injection, schedule: Q04DX003 (ip), vehicle: saline with Tween-80 91 % of control | dose: 400.0 mg/kg/injection, schedule: Q04DX003 (ip), vehicle: saline with Tween-80 86 % of control

CCOC(=O)c1ccc(NCc2cccc([N+](=O)[O-])c2)cc1
inactive: dose: 100.0 mg/kg/injection, schedule: Q01DX001 (ip), vehicle: saline with Tween-80 103 % of control | dose: 200.0 mg/kg/injection, schedule: Q01DX001 (ip), vehicle: saline with Tween-80 90 % of control | dose: 400.0 mg/kg/injection, schedule: Q01DX001 (ip), vehicle: saline with Tween-80 88 % of control

CNC1CC2CCC(C2)C1(O)c1ccccc1 (centres undefined)
inactive: [3] 91 % of control | dose: 50.0 mg/kg/injection, schedule: Q04DX003 (ip), vehicle: saline 113 % of control | [4] 100 % of control | [5] 102 % of control

Cc1ccc(S(=O)(=O)OC2CCN(C)CC2)cc1
inactive: dose: 6.0 mg/kg/injection, schedule: Q01DX009 (ip), vehicle: saline 91 % of control | dose: 12.0 mg/kg/injection, schedule: Q01DX009 (ip), vehicle: saline 93 % of control | dose: 12.0 mg/kg/injection, schedule: Q04DX003 (ip), vehicle: saline 102 % of control | dose: 25.0 mg/kg/injection, schedule: Q01DX005 (ip), vehicle: saline 97 % of control | dose: 25.0 mg/kg/injection, schedule: Q01DX009 (ip), vehicle: saline 93 % of control and 94 % of control | [3] 96 % of control | dose: 50.0 mg/kg/injection, schedule: Q01DX005 (ip), vehicle: saline 97 % of control | dose: 50.0 mg/kg/injection, schedule: Q01DX009 (ip), vehicle: saline 96 % of control | [1] 97 % of control and 99 % of control | [2] 112 % of control

COC1OC(CO)C(O)C(O)C1NC(C)=O (centres undefined)
inactive: [4] 106 % of control | dose: 200.0 mg/kg/injection, schedule: Q01DX001 (ip), vehicle: saline 103 % of control | dose: 400.0 mg/kg/injection, schedule: Q01DX001 (ip), vehicle: saline 104 % of control

O=C(O)/C=C/c1ccccc1C(=O)O
inactive: [5] 100 % of control | dose: 200.0 mg/kg/injection, schedule: Q04DX003 (ip), vehicle: saline 91 % of control | dose: 400.0 mg/kg/injection, schedule: Q04DX003 (ip), vehicle: saline 103 % of control
